According to US11066396B2 (priority 2016, dated 2021):

Columns and labels:
HDAC1 = HDAC1 (Homo sapiens (Human), UniProt Q13547); conditions: read-out: HDAC1 IC50
HDAC5 = HDAC5 (Homo sapiens (Human), UniProt Q9UQL6); conditions: read-out: HDAC5 IC50
HDAC5, sequence (Q9UQL6 656-1122): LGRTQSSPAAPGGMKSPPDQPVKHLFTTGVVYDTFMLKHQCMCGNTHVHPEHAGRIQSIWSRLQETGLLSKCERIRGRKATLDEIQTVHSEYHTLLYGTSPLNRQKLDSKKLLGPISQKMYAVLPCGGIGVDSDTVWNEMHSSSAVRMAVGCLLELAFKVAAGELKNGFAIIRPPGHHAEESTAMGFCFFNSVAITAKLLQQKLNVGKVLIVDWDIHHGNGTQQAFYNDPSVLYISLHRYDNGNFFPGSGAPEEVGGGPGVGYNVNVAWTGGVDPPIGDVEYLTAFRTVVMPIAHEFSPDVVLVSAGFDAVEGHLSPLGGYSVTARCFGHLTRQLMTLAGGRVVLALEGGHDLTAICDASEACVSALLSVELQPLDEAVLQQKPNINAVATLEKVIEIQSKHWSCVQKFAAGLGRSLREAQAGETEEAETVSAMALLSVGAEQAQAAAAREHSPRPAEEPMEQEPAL

HDAC1, sequence (Q13547 whole entry): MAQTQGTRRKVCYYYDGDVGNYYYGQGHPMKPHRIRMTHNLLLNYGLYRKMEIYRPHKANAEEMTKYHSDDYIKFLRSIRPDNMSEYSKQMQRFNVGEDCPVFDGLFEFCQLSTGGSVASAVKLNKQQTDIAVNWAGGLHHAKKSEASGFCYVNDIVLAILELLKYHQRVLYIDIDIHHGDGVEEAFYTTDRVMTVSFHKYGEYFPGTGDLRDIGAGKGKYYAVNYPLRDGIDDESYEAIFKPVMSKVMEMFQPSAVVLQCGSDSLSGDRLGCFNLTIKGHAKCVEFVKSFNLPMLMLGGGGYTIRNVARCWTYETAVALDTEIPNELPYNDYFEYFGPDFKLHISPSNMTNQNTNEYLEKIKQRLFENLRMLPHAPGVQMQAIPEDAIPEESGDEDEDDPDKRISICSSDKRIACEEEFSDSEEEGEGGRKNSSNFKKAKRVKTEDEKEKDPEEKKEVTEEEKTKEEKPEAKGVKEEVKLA

Question: For `Fc1ccc(OCc2ccc(-c3noc(C(F)(F)F)n3)c(F)c2)cn1` [Example 260, 2-fluoro-5-({3-fluoro-4-[5-(trifluoromethyl)-1,2,4-oxadiazol-3-yl]phenyl}methoxy)pyridine], which IC50 (HDAC1) is on record?
Answer: 12000 nM

Question: And the IC50 (HDAC5)?
Answer: 120 nM

Question: Which IC50 (HDAC1) does the source give for `FC(F)(F)c1nc(-c2ccc(COc3cc(Cl)ncn3)nc2)no1` [Example 309, 4-chloro-6-({5-[5-(trifluoromethyl)-1,2,4-oxadiazol-3-yl]pyridin-2-yl}methoxy)pyrimidine] here?
Answer: 4200 nM

Question: And the IC50 (HDAC5)?
Answer: 450 nM

Question: Which results are given for `FC(F)(F)c1nc(-c2ccnc(OCc3nccnc3Cl)c2Cl)no1` [Example 294, 2-chloro-3-[({3-chloro-4-[5-(trifluoromethyl)-1,2,4-oxadiazol-3-yl]pyridin-2-yl}oxy)methyl]pyrazine]?
Answer: IC50 (HDAC1): 12000 nM; IC50 (HDAC5): 410 nM

Question: `O=C(NC(Cc1ccc(-c2noc(C(F)(F)F)n2)cn1)c1cccc(C(F)(F)F)c1)C1CCS(=O)(=O)CC1` (racemic) [Example 477, 1,1-dioxo-N-(2-{5-[5-(trifluoromethyl)-1,2,4-oxadiazol-3-yl]pyridin-2-yl}-1-[3-(trifluoromethyl)phenyl]ethyl)-llambda~6~-thiane-4-carboxamide] was tested. Which IC50 (HDAC1) did it give?
Answer: 670 nM

Question: And the IC50 (HDAC5)?
Answer: 620 nM

Question: For `COc1cncc(OCc2ccc(-c3noc(C(F)(F)F)n3)c(F)c2)c1` [Example 258, 3-({3-fluoro-4-[5-(trifluoromethyl)-1,2,4-oxadiazol-3-yl]phenyl}methoxy)-5-methoxypyridine], which IC50 (HDAC1) is on record?
Answer: 1200 nM

Question: What about the IC50 (HDAC5) of the same molecule?
Answer: 150 nM

Question: `Cc1ncc(OCc2ccc(-c3noc(C(F)(F)F)n3)c(F)c2)cn1` [Example 274, 5-({3-fluoro-4-[5-(trifluoromethyl)-1,2,4-oxadiazol-3-yl]phenyl}methoxy)-2-methylpyrimidine] was tested. Which IC50 (HDAC1) did it give?
Answer: 4000 nM

Question: And the IC50 (HDAC5)?
Answer: 160 nM

Question: Which IC50 (HDAC1) does the source give for `Fc1cc(COc2nccc3nccn23)ccc1-c1noc(C(F)(F)F)n1` [Example 268, 5-({3-fluoro-4-[5-(trifluoromethyl)-1,2,4-oxadiazol-3-yl]phenyl}methoxy)imidazo[1,2-c]pyrimidine] here?
Answer: 2900 nM

Question: What about the IC50 (HDAC5) of the same molecule?
Answer: 120 nM

Question: Which results are given for `O=C1NCCc2c(OCc3ccc(-c4noc(C(F)(F)F)n4)cn3)cccc21` [Example 299, 5-({5-[5-(trifluoromethyl)-1,2,4-oxadiazol-3-yl]pyridin-2-yl}methoxy)-3,4-dihydroisoquinolin-1(2H)-one]?
Answer: IC50 (HDAC1): 1300 nM; IC50 (HDAC5): 800 nM

Question: For `FC(F)(F)c1nc(-c2ccnc(OCc3ncccc3Cl)c2Cl)no1` [Example 295, 3-chloro-2-[(3-chloropyridin-2-yl)methoxy]-4-[5-(trifluoromethyl)-1,2,4-oxadiazol-3-yl]pyridine], which IC50 (HDAC1) is on record?
Answer: 17000 nM

Question: What about the IC50 (HDAC5) of the same molecule?
Answer: 500 nM

Question: `Cn1cc(COc2nccc(-c3noc(C(F)(F)F)n3)c2Cl)nn1` [Example 293, 3-chloro-2-[(1-methyl-1H-1,2,3-triazol-4-yl)methoxy]-4-[5-(trifluoromethyl)-1,2,4-oxadiazol-3-yl]pyridine] was tested. Which IC50 (HDAC1) did it give?
Answer: 4500 nM

Question: What about the IC50 (HDAC5) of the same molecule?
Answer: 510 nM

Question: With `CCS(=O)(=O)N(Cc1ccc(-c2noc(C(F)(F)F)n2)cc1)c1cccc(C(F)(F)F)c1` [Example 491, N-({4-[5-(trifluoromethyl)-1,2,4-oxadiazol-3-yl]phenyl}methyl)-N-[3-(trifluoromethyl)phenyl]ethanesulfonamide] as the molecule, how does the IC50 (HDAC1) read?
Answer: 820 nM

Question: And the IC50 (HDAC5)?
Answer: 140 nM

Question: Which results are given for `Fc1cc(COc2cncc(Cl)c2)ccc1-c1noc(C(F)(F)F)n1` [Example 287, 3-chloro-5-({3-fluoro-4-[5-(trifluoromethyl)-1,2,4-oxadiazol-3-yl]phenyl}methoxy)pyridine]?
Answer: IC50 (HDAC1): 1800 nM; IC50 (HDAC5): 150 nM

Question: For `FC(F)c1cc(OCc2ccc(-c3noc(C(F)(F)F)n3)cn2)ncn1` [Example 306, 4-(difluoromethyl)-6-({5-[5-(trifluoromethyl)-1,2,4-oxadiazol-3-yl]pyridin-2-yl}methoxy)pyrimidine], which IC50 (HDAC1) is on record?
Answer: 1300 nM

Question: And the IC50 (HDAC5)?
Answer: 220 nM

Question: Which results are given for `Cc1ccnnc1OCc1ccc(-c2noc(C(F)(F)F)n2)c(F)c1` [Example 266, 3-({3-fluoro-4-[5-(trifluoromethyl)-1,2,4-oxadiazol-3-yl]phenyl}methoxy)-4-methylpyridazine]?
Answer: IC50 (HDAC1): 6600 nM; IC50 (HDAC5): 250 nM

Question: How did the IC50 (HDAC1) turn out when `NCc1ccccc1OCc1ccc(-c2noc(C(F)(F)F)n2)c(F)c1` [Example 270, 1-[2-({3-fluoro-4-[5-(trifluoromethyl)-1,2,4-oxadiazol-3-yl]phenyl}methoxy)phenyl]methanamine] was run?
Answer: 2300 nM

Question: What about the IC50 (HDAC5) of the same molecule?
Answer: 160 nM

Question: What does the source list for `Fc1cc(COc2cccc3c2CNCC3)ccc1-c1noc(C(F)(F)F)n1` [Example 265, 8-({3-fluoro-4-[5-(trifluoromethyl)-1,2,4-oxadiazol-3-yl]phenyl}methoxy)-1,2,3,4-tetrahydroisoquinoline]?
Answer: IC50 (HDAC1): 5600 nM; IC50 (HDAC5): 280 nM

Question: Which results are given for `Cc1cncc(OCc2ccc(-c3noc(C(F)(F)F)n3)c(F)c2)c1` [Example 269, 3-({3-fluoro-4-[5-(trifluoromethyl)-1,2,4-oxadiazol-3-yl]phenyl}methoxy)-5-methylpyridine]?
Answer: IC50 (HDAC1): 7100 nM; IC50 (HDAC5): 500 nM

Question: `Fc1cc(COc2cccc3[nH]ncc23)ccc1-c1noc(C(F)(F)F)n1` [Example 271, 4-({3-fluoro-4-[5-(trifluoromethyl)-1,2,4-oxadiazol-3-yl]phenyl}methoxy)-1H-indazole] was tested. Which IC50 (HDAC1) did it give?
Answer: 3700 nM

Question: What about the IC50 (HDAC5) of the same molecule?
Answer: 85 nM

Question: With `CCNC(=O)NC(Cc1ccc(-c2noc(C(F)(F)F)n2)cn1)c1cccc(C(F)(F)F)c1` (centres unmarked) [Example 179, 1-Ethyl-3-(2-(5-(5-(trifluoromethyl)-1,2,4-oxadiazol-3-yl)pyridin-2-yl)-1-(3-(trifluoromethyl)phenyl)ethyl)urea] as the molecule, how does the IC50 (HDAC1) read?
Answer: 340 nM

Question: What about the IC50 (HDAC5) of the same molecule?
Answer: 390 nM

Question: What does the source list for `Fc1ccccc1OCc1cc(-c2noc(C(F)(F)F)n2)ccn1` [Example 250, 2-[(2-fluorophenoxy)methyl]-4-[5-(trifluoromethyl)-1,2,4-oxadiazol-3-yl]pyridine]?
Answer: IC50 (HDAC1): 3100 nM; IC50 (HDAC5): 910 nM

Question: With `O=C(N1CCOCC1)N(Cc1ncc(-c2noc(C(F)(F)F)n2)cn1)c1cccc(C(F)(F)F)c1` [Example 50, N-((5-(5-(trifluoromethyl)-1,2,4-oxadiazol-3-yl)pyrimidin-2-yl)methyl)-N-(3-(trifluoromethyl)phenyl)morpholine-4-carboxamide] as the molecule, how does the IC50 (HDAC1) read?
Answer: 240 nM

Question: And the IC50 (HDAC5)?
Answer: 820 nM

Question: With `O=C(NC(Cc1ccc(-c2noc(C(F)(F)F)n2)cn1)c1cccc(C(F)(F)F)c1)c1ccccc1` (racemic) [Example 486, N-(2-{5-[5-(trifluoromethyl)-1,2,4-oxadiazol-3-yl]pyridin-2-yl}-1-[3-(trifluoromethyl)phenyl]ethyl)benzamide] as the molecule, how does the IC50 (HDAC1) read?
Answer: 690 nM

Question: And the IC50 (HDAC5)?
Answer: 670 nM

Question: How did the IC50 (HDAC1) turn out when `Fc1cc(COc2cccc(Cl)n2)ccc1-c1noc(C(F)(F)F)n1` [Example 286, 2-chloro-6-({3-fluoro-4-[5-(trifluoromethyl)-1,2,4-oxadiazol-3-yl]phenyl}methoxy)pyridine] was run?
Answer: 2700 nM

Question: What about the IC50 (HDAC5) of the same molecule?
Answer: 50 nM

Question: For `FC(F)(F)c1nc(-c2ccc(COc3nc(C4CC4)no3)nc2)no1` [Example 296, 2-{[(3-cyclopropyl-1,2,4-oxadiazol-5-yl)oxy]methyl}-5-[5-(trifluoromethyl)-1,2,4-oxadiazol-3-yl]pyridine], which IC50 (HDAC1) is on record?
Answer: 3700 nM

Question: And the IC50 (HDAC5)?
Answer: 49 nM

Question: For `NCc1cccc(OCc2ccc(-c3noc(C(F)(F)F)n3)c(F)c2)c1` [Example 267, 1-[3-({3-fluoro-4-[5-(trifluoromethyl)-1,2,4-oxadiazol-3-yl]phenyl}methoxy)phenyl]methanamine], which IC50 (HDAC1) is on record?
Answer: 1100 nM

Question: What about the IC50 (HDAC5) of the same molecule?
Answer: 200 nM
